Measurements as given in patent publication US9394297B2, “Amides as pim inhibitors” (AMGEN INC., priority 2012, dated 2016).
Read-outs that look alike come from different tables or passages of the source.

Legend:
KMS-12-BM cell lines = experiment: KMS12 #2 flow cytometry assay (phospho-BAD Ser112); type: cell-based; settings: Homo sapiens, 110 min, read-out: KMS-12-Flow IC50 IP
Pim-1 = Pim-1 (Homo sapiens (Human), UniProt P11309); experiment: Pim-Mn enzyme assay (HTRF, 384-well), Pim-1; type: biochemical; settings: Pim-1 enzyme 5 pM, ATP 1.5 μM, BAD (S112) 0.5 μM, HTRF, 22-point curve; read-out: Pim-1-Mn IC50 IP
Pim-2 = Pim-2 (Homo sapiens (Human), UniProt Q9P1W9); experiment: Pim-Mn enzyme assay (HTRF, 384-well), Pim-2; type: biochemical; settings: Pim-2 enzyme 0.5 pM, ATP 1.5 μM, BAD (S112) 0.5 μM, HTRF, 22-point curve; read-out: Pim-2-Mn IC50 IP
[1] = KMS-12-BM cells, pBAD Ser112 by flow cytometry, 110 min with compound

Chain of Pim-2 (Q9P1W9 whole entry): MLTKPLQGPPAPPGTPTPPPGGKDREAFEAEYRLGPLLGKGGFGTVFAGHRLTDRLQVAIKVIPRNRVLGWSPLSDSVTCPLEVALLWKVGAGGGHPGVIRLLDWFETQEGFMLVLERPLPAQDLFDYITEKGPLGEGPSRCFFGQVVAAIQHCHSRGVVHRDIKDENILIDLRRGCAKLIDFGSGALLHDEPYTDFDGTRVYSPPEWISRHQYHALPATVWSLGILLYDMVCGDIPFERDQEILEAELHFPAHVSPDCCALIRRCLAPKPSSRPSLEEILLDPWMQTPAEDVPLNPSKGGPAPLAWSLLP
Chain of Pim-1 (P11309 whole entry): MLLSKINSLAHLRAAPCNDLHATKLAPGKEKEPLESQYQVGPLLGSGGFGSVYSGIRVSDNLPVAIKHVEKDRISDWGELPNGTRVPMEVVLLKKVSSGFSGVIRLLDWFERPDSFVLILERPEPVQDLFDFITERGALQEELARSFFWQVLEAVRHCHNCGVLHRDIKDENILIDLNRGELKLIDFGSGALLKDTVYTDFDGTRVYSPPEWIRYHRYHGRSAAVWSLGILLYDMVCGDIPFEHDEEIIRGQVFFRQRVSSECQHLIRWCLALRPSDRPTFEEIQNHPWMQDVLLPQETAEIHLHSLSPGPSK

Structure (SMILES)	IC50 (KMS-12-BM cell lines; KMS-12-BM) [nM]	IC50 (KMS-12-BM cell lines; [1]) [nM]	IC50 (Pim-1) [nM]	IC50 (Pim-2) [nM]
CCn1c(NC(C)(C)C)nc2c(-c3cc4c([nH]3)[C@@H](C)NC4=O)cccc2c1=O [Example 481, (R)-2-(tert-butylamino)-3-ethyl-8-(6-methyl-4-oxo-1,4,5,6-tetrahydropyrrolo[3,4-b]pyrrol-2-yl)quinazolin-4(3H)-one]	20	–	–	–
Cn1c(NC(C)(C)C)nc2c(-c3cc4n(c3)CCNC4=O)cccc2c1=O [Example 449, 2-(tert-butylamino)-3-methyl-8-(1-oxo-1,2,3,4-tetrahydropyrrolo[1,2-a]pyrazin-7-yl)-4(3H)-quinazolinone]	–	429	–	–
Cc1nc2cccc(-c3cc4c([nH]3)[C@H](C)NC4=O)c2nc1NCC(F)F [Example 383, (S)-2-(3-((2,2-difluoroethyl)amino)-2-methylquinoxalin-5-yl)-6-methyl-5,6-dihydropyrrolo[3,4-b]pyrrol-4(1H)-one]	–	445	–	–
CC(C)n1c(NC(C)(C)C)nc2c(-c3cc4c([nH]3)[C@@H](C)NC4=O)cccc2c1=O [Example 406, 2-(tert-butylamino)-3-(1-methylethyl)-8-((6R)-6-methyl-4-oxo-1,4,5,6-tetrahydropyrrolo[3,4-b]pyrrol-2-yl)-4(3H)-quinazolinone]	–	30	–	–
Cn1c(NC(C)(C)C)nc2c(-c3cc4c([nH]3)CNC4=O)cccc2c1=O [Example 419, 2-(tert-butylamino)-3-methyl-8-(4-oxo-1,4,5,6-tetrahydropyrrolo[3,4-b]pyrrol-2-yl)-4(3H)-quinazolinone]	–	48.3	–	–
Cn1c(NC(C)(C)C)nc2c(-c3cc4c([nH]3)C3(CC3)NC4=O)cccc2c1=O [Example 456, 2′-(2-(tert-butylamino)-3-methyl-4-oxo-3,4-dihydro-8-quinazolinyl)-1′H-spiro[cyclopropane-1,6′-pyrrolo[3,4-b]pyrrol]-4′(5′H)-one]	–	29.4	–	–
Cc1nc2cccc(-c3cc4c([nH]3)CCNC4=O)c2nc1NC(C)(C)CCS(C)(=O)=O [Example 338, 2-(3-((1,1-dimethyl-3-(methylsulfonyl)propyl)amino)-2-methyl-5-quinoxalinyl)-1,5,6,7-tetrahydro-4H-pyrrolo[3,2-c]pyridin-4-one]	–	14300	–	–
Cc1nc2cccc(-c3cc4c([nH]3)CCNC4=O)c2nc1-c1cnccc1Cl [Example 412, 2-(3-(4-chloro-3-pyridinyl)-2-methyl-5-quinoxalinyl)-1,5,6,7-tetrahydro-4H-pyrrolo[3,2-c]pyridin-4-one]	–	21800	–	–
Cc1nc2cccc(-c3cc4c([nH]3)[C@H](C)NC4=O)c2nc1NC(C)(C)C [Example 327, (6S)-2-(3-(tert-butylamino)-2-methyl-5-quinoxalinyl)-6-methyl-5,6-dihydropyrrolo[3,4-b]pyrrol-4(1H)-one]	–	98.6	–	–
Cc1nc2cccc(-c3cc4c([nH]3)CCNC4=O)c2nc1-c1ccc(N)cc1Cl [Example 413, 2-(3-(4-amino-2-chlorophenyl)-2-methyl-5-quinoxalinyl)-1,5,6,7-tetrahydro-4H-pyrrolo[3,2-c]pyridin-4-one]	–	> 40000	–	–
Cc1nc2ccc(F)c(-c3cc4c([nH]3)[C@@H](C)NC4=O)c2nc1NC(C)(C)C [Example 297, (6R)-2-(3-(tert-butylamino)-6-fluoro-2-methyl-5-quinoxalinyl)-6-methyl-5,6-dihydropyrrolo[3,4-b]pyrrol-4(1H)-one]	–	28.4	–	–
Cc1nc2cccc(-c3cc4c([nH]3)CCN/C4=N\O)c2nc1NC(C)(C)C [Example 300, (E/Z)-2-(3-(tert-butylamino)-2-methylquinoxalin-5-yl)-6,7-dihydro-1H-pyrrolo[3,2-c]pyridin-4(5H)-one oxime]	–	> 10000	–	–
Cc1nc2cccc(-c3cc4c([nH]3)[C@@H](C)NC4=O)c2nc1N[C@H]1CCC[C@@H](NC(=O)[C@H](N)CO)C1 [Example 497, N-((1R,3S)-3-((3-methyl-8-((6R)-6-methyl-4-oxo-1,4,5,6-tetrahydropyrrolo[3,4-b]pyrrol-2-yl)-2-quinoxalinyl)amino)cyclohexyl)-D-serinamide]	–	–	0.28	0.16
Cc1nc2cccc(-c3cc4c([nH]3)CCNC4=O)c2nc1NC(C)(C)C(F)(F)F [Example 254, 2-(2-methyl-3-((1,1,1-trifluoro-2-methylpropan-2-yl)amino)quinoxalin-5-yl)-6,7-dihydro-1H-pyrrolo[3,2-c]pyridin-4(5H)-one]	–	–	2.67	2.24
Cc1nc2cccc(-c3cc4c([nH]3)CCNC4=O)c2nc1N[C@H]1CC[C@H]1N (racemic) [Example 54, rac-2-(3-((cis-2-aminocyclobutyl)amino)-2-methyl-5-quinoxalinyl)-1,5,6,7-tetrahydro-4H-pyrrolo[3,2-c]pyridin-4-one]	–	–	1.3	2.9
Cc1nc2cccc(-c3cc4c([nH]3)CCNC4=O)c2nc1N[C@H]1CCNC1 [Example 55, 2-(2-methyl-3-((3S)-3-pyrrolidinylamino)-5-quinoxalinyl)-1,5,6,7-tetrahydro-4H-pyrrolo[3,2-c]pyridin-4-one]	–	–	0.7	3
C[C@H]1NC(=O)c2cc(-c3c(F)ccc4c(=O)n(C5CC5)c(NC5(C)CC5)nc34)[nH]c21 [Example 495, (R)-3-cyclopropyl-7-fluoro-8-(6-methyl-4-oxo-1,4,5,6-tetrahydropyrrolo[3,4-b]pyrrol-2-yl)-2-((1-methylcyclopropyl)amino)quinazolin-4(3H)-one]	–	–	0.046	0.06
Cc1nc2cccc(-c3cc4c([nH]3)CCNC4=O)c2nc1N[C@H]1C[C@@H](N(CCF)CCF)C1 [Example 476, 2-(3-(((1 s,3s)-3-(bis(2-fluoroethyl)amino)cyclobutyl)amino)-2-methylquinoxalin-5-yl)-6,7-dihydro-1H-pyrrolo[3,2-c]pyridin-4(5H)-one]	–	–	2	12
C[C@H]1NC(=O)c2cc(-c3cccc4c(=O)n(CC(F)(F)F)c(NC(C)(C)C)nc34)[nH]c21 [Example 501, 2-(tert-butylamino)-8-((6R)-6-methyl-4-oxo-1,4,5,6-tetrahydropyrrolo[3,4-b]pyrrol-2-yl)-3-(2,2,2-trifluoroethyl)-4(3H)-quinazolinone]	–	–	0.16	0.19
CCn1c(NC(C)(C)C)nc2c(-c3cc4c([nH]3)[C@@H](C)NC4=O)c(F)ccc2c1=O [Example 512, (R)-2-(tert-Butylamino)-3-ethyl-7-fluoro-8-(6-methyl-4-oxo-1,4,5,6-tetrahydropyrrolo[3,4-b]pyrrol-2-yl)quinazolin-4(3H)-one]	–	–	0.029	0.0741
Cc1nc2cccc(-c3cc4c([nH]3)CCNC4=O)c2nc1NC1(C(F)(F)F)CC1 [Example 258, 2-(2-methyl-3-((1-(trifluoromethyl)cyclopropyl)amino)quinoxalin-5-yl)-6,7-dihydro-1H-pyrrolo[3,2-c]pyridin-4(5H)-one]	–	–	0.694	0.338
Cc1nc2cccc(-c3cc4c(=O)[nH]cnc4[nH]3)c2nc1F [Example 264, 6-(3-fluoro-2-methylquinoxalin-5-yl)-3H-pyrrolo[2,3-d]pyrimidin-4(7H)-one]	–	–	1120	1690
CSc1nc2c(-c3cc4c([nH]3)CCNC4=O)cccc2c(=O)n1C [Example 265, 3-methyl-2-(methylthio)-8-(4-oxo-4,5,6,7-tetrahydro-1H-pyrrolo[3,2-c]pyridin-2-yl)quinazolin-4(3H)-one]	–	–	25.2	11.9
Cc1nc2cccc(-c3[nH]c4c(c3Cl)C(=O)N[C@@H]4C)c2nc1NC1(C)CC1 [Example 454, (R)-3-chloro-6-methyl-2-(2-methyl-3-((1-methylcyclopropyl)amino)quinoxalin-5-yl)-5,6-dihydropyrrolo[3,4-b]pyrrol-4(1H)-one]	–	–	0.255	0.599
Cc1nc2cccc(-c3cc4c([nH]3)CCNC4=O)c2nc1N[C@H]1CC[C@H](O)CC1 [Example 206, 2-(3-((trans-4-hydroxycyclohexyl)amino)-2-methylquinoxalin-5-yl)-6,7-dihydro-1H-pyrrolo[3,2-c]pyridin-4(5H)-one]	–	–	2.7	4
Cc1nc2cccc(-c3cc4c([nH]3)CCNC4=O)c2nc1N[C@@H]1CCN(C(=O)OC(C)(C)C)C1 [Example 48, tert-butyl (3R)-3-((3-methyl-8-(4-oxo-4,5,6,7-tetrahydro-1H-pyrrolo[3,2-c]pyridin-2-yl)-2-quinoxalinyl)amino)-1-pyrrolidinecarboxylate]	–	–	26.2	116
CC(=O)N1CCC[C@H](Nc2nc3c(-c4cc5c([nH]4)CCNC5=O)cccc3nc2C)C1 [Example 242, 2-(3-(((3S)-1-acetyl-3-piperidinyl)amino)-2-methyl-5-quinoxalinyl)-1,5,6,7-tetrahydro-4H-pyrrolo[3,2-c]pyridin-4-one]	–	–	129	137
Cc1nc2cccc(-c3cc4c([nH]3)CCNC4=O)c2nc1OC1CCC1 [Example 151, 2-(3-cyclobutoxy-2-methylquinoxalin-5-yl)-6,7-dihydro-1H-pyrrolo[3,2-c]pyridin-4(5H)-one]	–	–	18.2	12.3
Cc1nc2cccc(-c3cc4c([nH]3)CCNC4=O)c2nc1NC1CN(C(=O)OC(C)(C)C)C1 [Example 149, tert-butyl 3-((3-methyl-8-(4-oxo-4,5,6,7-tetrahydro-1H-pyrrolo[3,2-c]pyridin-2-yl)quinoxalin-2-yl)amino)azetidine-1-carboxylate]	–	–	20	33
Cc1nc2cccc(-c3cc4c([nH]3)CCNC4=O)c2nc1OCCC(C)(C)N [Example 269, 2-(3-(3-amino-3-methylbutoxy)-2-methyl-5-quinoxalinyl)-1,5,6,7-tetrahydro-4H-pyrrolo[3,2-c]pyridin-4-one]	–	–	44.5	65.3
